# In US6407141B1 (priority 1995, dated 2002):
# Assays:
# low red blood cell count = assay: vitamin B6 pills in woman with low red blood cell count; format: in vivo, human; settings: 50 mg pills, one a day first week then every other day; three weeks
# Excerpt: After retirement, Turk's owner was planning to move and some friends stopped by to visit. One evening while having cocktails with the friends, they began talking about health and age, etc. […] Turk's owner's research had paid off. They gave their organic gardening magazine to the person and urged them to read the article by Judith Benn Hurley. They explained to them that the reason their red cell count was low was because of their diet. […] Their diet contained items high in oxalic acid, like spinach, their favorite salad.
# [1] = system: fever, burning and irritation when urinating, back pain; assay: vitamin B6 pills for fever, urinary irritation, back pain attributed to oxalic acid; format: in vivo, human
# Method: Then Turk's owner moved to Arkansas. His […], who is married and living nearby, worked at a local hospital. One day they began running a high fever in the range of 104° -106°, went home, and went straight to bed. The fever fell, and the next couple of days they returned to work only to have the fever return after a couple of hours. They went home and the cycle repeated. They mentioned this to a doctor in the emergency room and a series of tests were ordered looking for a virus, an infection, even a tubular conception. Turk's owner became involved, because after listening to long, sometimes whispered conversations between their spouse and stepdaughter, they asked what the trouble was. Their spouse explained what had happened and that the doctor was looking for some type of urinary tract or vaginal infection, but there were no positive cultures. […] Their stepdaughter was eating primarily salad bar meals loaded with oxalic acid.
# melanoma (mouth tumor) = assay: case study, Irish Setter with melanoma, oxalic acid diet and food additive; format: in vivo, canine; settings: eleven month period; diet, then oxalic acid dihydrate 1 gram down to 20 mg per day in food
# [2] = case study, dog at a pound given oxalic acid dihydrate gel cap for seven days; format: in vivo; settings: one gram in a gel cap one hour prior to meal time for seven days
# [3] = system: bone cancer (sarcoma) of the left hind leg; assay: case study, Doberman pincher with bone cancer, oxalic acid enhanced dogfood; format: in vivo, dog
# Excerpt: In accordance with another case study, a Doberman […] diagnosed with bone cancer (sarcoma) of the left hind leg. The dog had previously been put on medication for arthritis because it would not use or lower its left hind leg. […] A few days later, the dog began taking steps on the left hind leg with a slight limp.
# [4] = system: leukemia with tumors in lymph nodes; assay: case study, leukemia with tumors in lymph nodes; format: in vivo, human; settings: after 5-7 days; about 1 to 1 ½ g/day in dilute solution, almost no blockers
# Excerpt: An adult was terminally ill with leukemia with tumors in their lymph nodes and they had stopped chemotherapy treatment. […] It was hard for them to swallow so they were on a liquid diet because of the swelling of the lymph nodes in and around their mouth and throat.
# [5] = system: tarter or plaque, gums and mouth tissue; assay: daily use of dental hygiene composition by the inventor; format: in vivo, human; settings: 150 mg diluted in 300 ml of distilled water
# Excerpt: The inventor continued to search for other uses of the “miracle bullet” oxalic acid or oxalate compositions for treating the body and immune system. […] There was no more occasional bleeding of the gums during daily brushing, and the surface of the tongue appeared to be more smooth with an even coloring across the surface.
# [6] = system: gingivitis, tarter and plaque; assay: daily brushing of dog's teeth with oxalic acid solution; format: in vivo; settings: 150 mg in 300 ml of distilled water, one week
# Excerpt: At the completion of the exam, rather than treat the gingivitis with an injection of antibacterial medication followed by oral medication, it was agreed the inventor would commence daily brushing of the dog's teeth. […] The inventor began a daily brushing of the dog's teeth paying particular attention to the upper gums. The brushing was done first thing in the morning before the dog had anything to eat or drink. After the fourth day of brushing, the inventor/owner of the dog, noticed the redness of the gingivitis was disappearing and after one week returned the dog to the veterinarian for a follow-up exam. […] The veterinarian recommended cleaning one side of the dogs upper teeth and continuing with the daily brushing routine.
# infected torn toenail = assay: soaking of poodle's infected paw in oxalic acid solution; format: in vivo, dog; settings: 150 mg in 300 ml of distilled water, after two soakings; antibiotic also given
# Excerpt: On another occasion, the inventor's pet poodle had torn a toenail which became infected. The infection was in an advanced stage which was extremely sensitive and the poodle would not use the leg while walking. The poodle was examined by the veterinarian, received an injection of a antibiotic, and oral capsules were to be given.
# [7] = system: cold, flu virus, sore throat; assay: mouth rinse and gargle case studies, cold, flu, sore throat; format: in vivo, human; settings: rinse two minutes and gargle three times a day for four days; two cases
# Excerpt: On another occasion while visiting the veterinary clinic, the inventor noticed the receptionist had symptoms of a cold, and upon questioning the receptionist learned […] was treating a cold which was into the start of the second week. […] The inventor advised the receptionist that, each morning immediately upon rising, and prior to any other substance being put into the mouth, they should take approximately one teaspoon of the solution in their mouth, holding it for a minimum of two minutes, swishing the solution gently around the mouth, then discarding the solution and rinsing the mouth with warm water two or three times. The procedure began Friday night and the following Monday morning the cold was gone.
# The dilute solution was the bench mark solution.
# On still another occasion a pharmacist, consultant to the inventor, awoke at 2:30 a.m. with a very sore throat, unable to swallow without severe pain, remembered the inventor's description of their own experience, mixed two teaspoons of the bench mark mixture and two teaspoons of warm water, held the mixture in the mouth for two minutes and gargled well. After a 15-minute wait, repeated the procedure and then retired. Upon arising at 6:30 a.m., repeated the procedure one time before leaving for the pharmacy.
# viral pneumonia = assay: mouthwash procedure in viral pneumonia; format: in vivo, human; settings: 150 mg in 300 ml of distilled water, rinse and gargle three times daily, Friday to Sunday; antibiotics also given
# Method: Also, their spouse was diagnosed with viral pneumonia by X-ray examination. They were given antibiotics to ward off infections because of a weakened immune system. […] They started the recommended procedure of approximately 2 teaspoons of wash, holding in mouth for 2 minutes then gargle, spit out wash, then rinsing mouth at least twice with warm tap water. The procedure was repeated first thing in the morning immediately after rising and before anything else was put in mouth. It was done mid-day with nothing in mouth one hour prior to wash. At night, the procedure was repeated as the last item before retiring.
# [8] = man; cited from earlier work
# [9] = FIG. 1; cited from earlier work
# [10] = canine urine oxalate count; settings: about 1 gram per day intake; 25 Kilogram canine
# [11] = after dose reduced to about 1 gram, then about 500 mg per day
structure (smiles),measurement,setting,value
"Cc1ncc(CO)c(CO)c1O.Cl [vitamin B6, pyridoxine hydrochloride]","outcome, surgery delayed by low red cell count",low red blood cell count,doctor had just scheduled their operation
same,symptoms,[1]; after the third day,all symptoms were gone
same,back pain without muscle or spine problems,[1]; other people,found relief
same,fever,"[1]; two pills, one after twelve hours, then one a day, in two days",fever was gone
O=C(O)C(=O)O [oxalic acid dihydrate],mouth tumor size,melanoma (mouth tumor),reduced in size
same,adverse effects,[2],no adverse effects
same,pain and walking,[3]; after about 30 days on the oxalic acid diet,no pain during physical exam and was walking normally
same,"X-ray, area affected by the sarcoma",[3]; [11],decrease or reduction in the size of the area affected by the sarcoma
same,"X-ray, bone material",[3]; [11],increase in bone material in the area of the sarcoma
same,use of left hind leg,"[3]; within 4 days, about 2 grams added to dry dogfood",lowered its left hind leg and used it frequently
"O=C(O)C(=O)O [oxalic acid, ethanedioic acid]",tumors in lymph nodes,[4],shrinkage of tumors in the lymph nodes
same,condition of gums and mouth tissue,[5],remarkable improvement
same,tarter or plaque in the mouth,[5],removal of and prevention of any build up of tarter or plaque
same,gingivitis at follow-up exam,[6],no more evidence of gingivitis
same,tarter and plaque at follow-up exam,[6],no tarter but moderate plaque remained
same,infection of the paw,infected torn toenail,improved dramatically
same,"soreness of throat and nose, flu virus",[7],completely removes all soreness of throat and nose
same,effects of the viral pneumonia,viral pneumonia,nearly complete relief
same,"death after ingestion, as early as",[8],3 min
same,"death after ingestion, as late as",[8],14 days
same,stability of solutions to radiation,[9],decomposed by radiation
same,level of oxalate in the urine,[10],~22000 ng/mL
